Test results: patent publication EP0423240B1, “MODULATION OF VIRUS-HOST CELL INTERACTIONS USING CYCLIC OLIGOSACCHARIDES” (THE TRUSTEES OF THE UNIVERSITY OF PENNSYLVANIA, priority 1988, dated 1990)
≈ marks a conversion by molar mass, not a printed value.

Experiments:
HIV-1 [1] = experiment: HIV-1 induced syncytia assay, IIIb infected H9 cells cocultured with Supt-1 target cells; assay type: cell-based; conditions: for number of syncytia formed: HIV-1, number and size of syncytia
Experimental: (§1) For the assay of HIV-1 fusion, Supt T1 cells were used as target cells. They fuse rapidly when cocultured with HIV-1 (H9/IIIb) producing cell lines. For the assay of HIV-2 mediated cell fusion, H9 cells were used as target cells. They fuse rapidly when cocultured with HIV-2 (CEMROD-2) producing cell lines. HIV infected cells were plated in 96 well plates (10⁴ cells/well in RPMI 1640 + 10% FCS) and incubated with or without dilution of compounds for 30 minutes at 37°C. Target cells are then added 5 x 10⁵/well and the number of syncytia are qualitatively determined after the incubation periods described in the text.
In a series of additional experiments, analysis of HIV-1 induced syncytia was performed by coculturing H9 cells infected with the IIIb isolate with uninfected Supt-1 (a human CD4+ T cell line) cells as targets. […]

HIV-2 = HIV-2 induced syncytia assay, ROD-2 infected cells cocultured with H9 target cells; assay type: cell-based; conditions: HIV-2, number and size of syncytia
Experimental: as §1, with “text. […]” for “text.”

Water solubility at 0°C = assay type: physicochemical; conditions: 0°C, H₂O
Experimental: The cyclic oligosaccharide derivatives useful in the present invention are highly hydrophilic and therefore very water soluble. A highly hydrophilic character probably is important to allow interaction with cellular surfaces. The hydrophilic activity is likely roughly indicated by the affinity to water, as measured by water solubility. It is important to measure the same at 0°C since at higher temperatures the most suitable derivative have solubilities so high that meaningful measurements are difficult.

[2] = tested on: HTLV-IIIb cell free virus; experiment: Reverse transcriptase assay of HIV infectivity, cell free virus on target cells, 10 day incubation; assay type: cell-based, HIV-1; conditions: 1/2 dilutions from 2.5 mM, result in words
Experimental: Figure 2 illustrates the effects of cyclodextrin and cyclodextrin derivatives on HIV infectivity as determined by reverse transcriptase activity. Samples assayed are (A) untreated control cells, (B) β-cyclodextrin unsubstituted ring, (C) partially sulfated β-cyclodextrin ring, (D) propylated β-cyclodextrin ring, (E) sulfated β-cyclodextrin ring, and (F) methylated β-cyclodextrin ring. Numbers indicate 1/2 dilutions of test compounds with 1 = 2.5 mM concentration of compound.
Virus infected cells were pelleted by centrifugation and 50 µl of culture suprenatant was collected from each well for assay. Culture supernatant (25 µl) was plated in 96 well round bottomed plates and 50 µl of transcriptase cocktail was added to each well. Cocktail is 50 mM Tris-HC1, pH 8.0, 20 mM DTT, 0.6 mM MnC1₂, 60 mM NaC1, 0.05% NP-40, 5 µg/ml dt (oligodeoxythymidilic acid), 10 µg/ml poly A (polyriboadenylic acid), 10 µM dTTP, 1 Ci/mm ³²P dTTP. Plates were then incubated for 60 minutes at 37°C. After incubation samples were spotted onto Whatman DEAE-81 paper, washed and analyzed by counting or direct autoradiography.
The ability of cyclodextrins to inhibit HIV infection was assessed in vitro utilizing reverse transcriptase assays as described Section 6.1.2, supra. HTLV-IIIb cell free virus stocks were inoculated onto target cells in the presence or absence of the synthetic compounds.

HIV-1 [3] = experiment: Viral RNA analysis by dot blot; assay type: cell-based; conditions: target cells infected in the presence of compound, 1 mM, 72 hours post-infection
Experimental: Virus particles were incubated with target cells in the presence or absence of […] of β-CD-14S. At 72 hours post infection, the cells were washed and dot blot assays were performed to determine the presence or absence of viral RNA production. In (A), target cells were infected in the presence of sulfated β-cyclodextrin (lane A), in the absence of cyclodextrins (lane B), or in the presence of unsubstituted β-cyclodextrin (lane C). 1/2 dilutions of cells are from left to right starting with 10⁶ cell/well utilized. In (B), virally infected cells (+) or uninfected cells (-) were assayed for their ability to produce viral RNA by dot blot analysis. CD = infected cells incubated with 1 mM of β-CD-14S. 1/2 dilutions of cells are from top to bottom starting with 10⁶ cell/well.
Virus treated cells were grown in tissue culture and harvested for assay at 72 hrs. post-infection. The cell concentrations were then adjusted to 1 x 10⁶ cells/m1 with phosphate buffered saline and spotted directly onto prewetted gene screen utilizing a dot blot apparatus. The filter was then fixed in 3% NaC1, 10 mM NaH₂PO₄, (pH 7.2) containing 1% gluteraldehyde at 4°C for 1 hr. The fixed blot was then rinsed three times with proteolytic buffer (50mM EDTA, 0.1 M Tris-HC1 (pH 8.0), 20 µg/ml proteinase K) for 30 minutes at 37°C. The filter was air dried until being probed. A Sall-Xho1 probe derived from the pIIIenv1 plasmid (a generous gift of Dr. J. Sodrofsky) and encoding the envelope region of the HXB2, HIV-1 virus was labeled by the random primer method using standard technology and hybridized to the filter as previously described (Weiner et al., 1986, Cell Immunol. 100:197).
To determine if the cyclodextrins were interfering with steps relevant to viral replication, the ability of these compounds to inhibit viral nucleic acid synthesis was determined. Virus particles were incubated with target cells in the presence or absence of 1 mM of β-CD-14S. At 72 hours post-infection, the cells were washed and dot blot assays were performed to determine the presence or absence of viral RNA production. […]

With `OC[C@H]1O[C@@H]2O[C@H]3[C@H](O)[C@@H](O)[C@@H](O[C@H]4[C@H](O)[C@@H](O)[C@@H](O[C@H]5[C@H](O)[C@@H](O)[C@@H](O[C@H]6[C@H](O)[C@@H](O)[C@@H](O[C@H]7[C@H](O)[C@@H](O)[C@@H](O[C@H]8[C@H](O)[C@@H](O)[C@@H](O[C@H]1[C@H](O)[C@H]2O)O[C@@H]8CO)O[C@@H]7CO)O[C@@H]6CO)O[C@@H]5CO)O[C@@H]4CO)O[C@@H]3CO` [Beta-CD, β-cyclodextrin, reference compound] the “number of syncytia formed” value (HIV-1 [1]; 1.3 mM) was 4 L, the “number of syncytia formed” value (HIV-1 [1]; 2.5 mM) was 4 L and the “number of syncytia formed” value (HIV-1 [1]; .01 mM) was 4 L. For the same compound, the “number of syncytia formed” value (HIV-1 [1]; .02 mM) was 4 L, the “number of syncytia formed” value (HIV-1 [1]; .04 mM) was 4 L and the “number of syncytia formed” value (HIV-1 [1]; .08 mM) was 4 L. The “number of syncytia formed” value (HIV-1 [1]; .16 mM) was 4 L, the “number of syncytia formed” value (HIV-1 [1]; .32 mM) was 4 L and the “number of syncytia formed” value (HIV-1 [1]; .63 mM) was 4 L. For the same compound, the “inhibiting syncytia formation of HIV-1” value (HIV-1 [1]; result in words) was “as ineffective as media alone”, the “number of syncytia formed” value (HIV-2; 1.3 mM) was 4 L and the “number of syncytia formed” value (HIV-2; 2.5 mM) was 4 L. The “number of syncytia formed” value (HIV-2; .01 mM) was 4 L, the “number of syncytia formed” value (HIV-2; .02 mM) was 4 L and the “number of syncytia formed” value (HIV-2; .04 mM) was 4 L. The “number of syncytia formed” value (HIV-2; .08 mM) was 4 L, the “number of syncytia formed” value (HIV-2; .16 mM) was 4 L and the “number of syncytia formed” value (HIV-2; .32 mM) was 4 L. For the same compound, the “number of syncytia formed” value (HIV-2; .63 mM) was 4 L, the solubility (Water solubility at 0°C) was 7000 µg/mL (≈ 6.17 mM) and the “inhibition of viral infectivity (reverse transcriptase activity)” value [2] was “no inhibition of viral infectivity”. For the same compound, the “HIV-1 specific RNA” value (HIV-1 [3]) was “substantial viral RNA was detected”.
